# In ChEMBL document CHEMBL1201862, “PubChem BioAssay data set” (2004):
#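 The compound was tested at five concentrations on cells cultured in 96-well plates, with a 48-hour exposure period. GI50 is the concentration that inhibits growth by half.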 Active and inactive are the calls of the source. Rule as the data show it: active = GI50 up to about 1.1 µM and inactive = higher.
# Key:
# Assay in all cases: NCI tumour cell line growth inhibition, 48 h
# 786-0 = test system: 786-0
# A549 = test system: A549
# ACHN = test system: ACHN
# BT-549 = test system: BT-549
# CAKI-1 = test system: CAKI-1
# CCRF-CEM = test system: CCRF-CEM
# COLO 205 = test system: COLO 205
# DU-145 = test system: DU-145
# HCC 2998 = test system: HCC 2998
# HCT-116 = test system: HCT-116
# HCT-15 = test system: HCT-15
# HL-60 = test system: HL-60
# HOP-62 = test system: HOP-62
# HOP-92 = test system: HOP-92
# HT-29 = test system: HT-29
# Hs-578T = test system: Hs-578T
# IGROV-1 = test system: IGROV-1
# K562 = test system: K562
# KM12 = test system: KM12
# LOX IMVI = test system: LOX IMVI
# M14 = test system: M14
# MCF7 = test system: MCF7
# MDA-MB-231 = test system: MDA-MB-231
# MDA-MB-435 = test system: MDA-MB-435
# MDA-N = test system: MDA-N
# MOLT-4 = test system: MOLT-4
# Malme-3M = test system: Malme-3M
# NCI-H23 = test system: NCI-H23
# NCI-H522 = test system: NCI-H522
# NCI/ADR-RES = test system: NCI/ADR-RES
# OVCAR-3 = test system: OVCAR-3
# OVCAR-4 = test system: OVCAR-4
# OVCAR-8 = test system: OVCAR-8
# PC-3 = test system: PC-3
# RPMI-8226 = test system: RPMI-8226
# SF-268 = test system: SF-268
# SF-295 = test system: SF-295
# SF-539 = test system: SF-539
# SK-MEL-28 = test system: SK-MEL-28
# SK-MEL-5 = test system: SK-MEL-5
# SK-OV-3 = test system: SK-OV-3
# SN12C = test system: SN12C
# SNB-19 = test system: SNB-19
# SNB-75 = test system: SNB-75
# SR = test system: SR
# SW-620 = test system: SW-620
# T47D = test system: T47D
# TK-10 = test system: TK-10
# U-251 = test system: U-251
# UACC-257 = test system: UACC-257
# UACC-62 = test system: UACC-62
# A498 = test system: A498
# EKVX = test system: EKVX
# NCI-H226 = test system: NCI-H226
# NCI-H460 = test system: NCI-H460
# OVCAR-5 = test system: OVCAR-5
# RXF 393 = test system: RXF 393
# SK-MEL-2 = test system: SK-MEL-2
# UO-31 = test system: UO-31
smiles,measurement,setting,value
C=CCC1(C(=O)OC)CCC/C(=N\O)C1 (centres undefined),GI50,786-0,> 10 µM (inactive)
same,GI50,A549,> 10 µM (inactive)
same,GI50,ACHN,> 10 µM (inactive)
same,GI50,BT-549,> 10 µM (inactive)
same,GI50,CAKI-1,> 10 µM (inactive)
same,GI50,CCRF-CEM,> 10 µM (inactive)
same,GI50,COLO 205,> 10 µM (inactive)
same,GI50,DU-145,> 10 µM (inactive)
same,GI50,HCC 2998,> 10 µM (inactive)
same,GI50,HCT-116,> 10 µM (inactive)
same,GI50,HCT-15,> 10000 nM
same,GI50,HL-60,> 10 µM (inactive)
same,GI50,HOP-62,> 10 µM (inactive)
same,GI50,HOP-92,> 10 µM (inactive)
same,GI50,HT-29,> 10 µM (inactive)
same,GI50,Hs-578T,> 10 µM (inactive)
same,GI50,IGROV-1,> 10 µM (inactive)
same,GI50,K562,> 10 µM (inactive)
same,GI50,KM12,> 10 µM (inactive)
same,GI50,LOX IMVI,> 10 µM (inactive)
same,GI50,M14,> 10 µM (inactive)
same,GI50,MCF7,> 10 µM (inactive)
same,GI50,MDA-MB-231,> 10 µM (inactive)
same,GI50,MDA-MB-435,> 10 µM (inactive)
same,GI50,MDA-N,> 10 µM (inactive)
same,GI50,MOLT-4,> 10 µM (inactive)
same,GI50,Malme-3M,> 10 µM (inactive)
same,GI50,NCI-H23,> 10 µM (inactive)
same,GI50,NCI-H522,> 10 µM (inactive)
same,GI50,NCI/ADR-RES,> 10 µM (inactive)
same,GI50,OVCAR-3,> 10 µM (inactive)
same,GI50,OVCAR-4,> 10 µM (inactive)
same,GI50,OVCAR-8,> 10 µM (inactive)
same,GI50,PC-3,> 10 µM (inactive)
same,GI50,RPMI-8226,> 10 µM (inactive)
same,GI50,SF-268,> 10 µM (inactive)
same,GI50,SF-295,> 10 µM (inactive)
same,GI50,SF-539,> 10 µM (inactive)
same,GI50,SK-MEL-28,> 10 µM (inactive)
same,GI50,SK-MEL-5,> 10 µM (inactive)
same,GI50,SK-OV-3,> 10 µM (inactive)
same,GI50,SN12C,> 10 µM (inactive)
same,GI50,SNB-19,> 10 µM (inactive)
same,GI50,SNB-75,> 10 µM (inactive)
same,GI50,SR,> 10 µM (inactive)
same,GI50,SW-620,> 10 µM (inactive)
same,GI50,T47D,> 10 µM (inactive)
same,GI50,TK-10,> 10 µM (inactive)
same,GI50,U-251,> 10 µM (inactive)
same,GI50,UACC-257,> 10 µM (inactive)
same,GI50,UACC-62,> 10 µM (inactive)
Cc1ccc(F)cc1NC(=O)O/N=C(\Cl)C(C)C,GI50,786-0,5.69 µM (inactive)
same,GI50,A498,20 µM (inactive)
same,GI50,A549,18.9 µM (inactive)
same,GI50,ACHN,2.14 µM (inactive)
same,GI50,BT-549,2.18 µM (inactive)
same,GI50,CAKI-1,1.72 µM (inactive)
same,GI50,CCRF-CEM,1.9 µM (inactive)
same,GI50,COLO 205,1.9 µM (inactive)
same,GI50,DU-145,18.2 µM (inactive)
same,GI50,EKVX,7.19 µM (inactive)
same,GI50,HCC 2998,16.2 µM (inactive)
same,GI50,HCT-116,5.28 µM (inactive)
same,GI50,HCT-15,1820 nM
same,GI50,HL-60,2.32 µM (inactive)
same,GI50,HOP-62,19.5 µM (inactive)
same,GI50,HOP-92,2.58 µM (inactive)
same,GI50,HT-29,14.6 µM (inactive)
same,GI50,Hs-578T,22.5 µM (inactive)
same,GI50,IGROV-1,17.2 µM (inactive)
same,GI50,K562,1.97 µM (inactive)
same,GI50,KM12,16.9 µM (inactive)
same,GI50,LOX IMVI,1.98 µM (inactive)
same,GI50,M14,5.22 µM (inactive)
same,GI50,MCF7,6.4 µM (inactive)
same,GI50,MDA-MB-231,14.1 µM (inactive)
same,GI50,MDA-MB-435,13 µM (inactive)
same,GI50,MDA-N,5.62 µM (inactive)
same,GI50,MOLT-4,1.6 µM (inactive)
same,GI50,Malme-3M,2.7 µM (inactive)
same,GI50,NCI-H226,14 µM (inactive)
same,GI50,NCI-H23,17.9 µM (inactive)
same,GI50,NCI-H460,29.2 µM (inactive)
same,GI50,NCI-H522,0.791 µM (active)
same,GI50,NCI/ADR-RES,10.6 µM (inactive)
same,GI50,OVCAR-3,6.47 µM (inactive)
same,GI50,OVCAR-4,16 µM (inactive)
same,GI50,OVCAR-5,15.4 µM (inactive)
same,GI50,OVCAR-8,17.5 µM (inactive)
same,GI50,PC-3,18 µM (inactive)
same,GI50,RPMI-8226,2.17 µM (inactive)
same,GI50,RXF 393,3.05 µM (inactive)
same,GI50,SF-268,24.5 µM (inactive)
same,GI50,SF-295,28.5 µM (inactive)
same,GI50,SF-539,7.21 µM (inactive)
same,GI50,SK-MEL-28,15.8 µM (inactive)
same,GI50,SK-MEL-2,19.1 µM (inactive)
same,GI50,SK-MEL-5,6.97 µM (inactive)
same,GI50,SK-OV-3,20.2 µM (inactive)
same,GI50,SN12C,6.11 µM (inactive)
same,GI50,SNB-19,35.5 µM (inactive)
same,GI50,SNB-75,14.8 µM (inactive)
same,GI50,SW-620,2.35 µM (inactive)
same,GI50,T47D,4.73 µM (inactive)
same,GI50,TK-10,3.71 µM (inactive)
same,GI50,U-251,23.3 µM (inactive)
same,GI50,UACC-257,19 µM (inactive)
same,GI50,UACC-62,13.2 µM (inactive)
same,GI50,UO-31,7.98 µM (inactive)
